Test systems include NCI-H23 lung; SNB-75 CNS; BT-549 breast; DU-145 prostate; RPMI-8226 leukemia; HOP-62 NSCLC; SR leukemia; HCC-2998 colon.
What all share (assay): DTP human tumour cell line panel, 48 h

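1) Cells in 96-well plates. 2) Compound, 48 h, 5 concentrations. 3) Linear interpolation between surrounding doses. 4) Unreached endpoint = highest concentration. GI50: concentration for 50% inhibition of growth. TGI: total growth inhibition.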

In the case of `CC(=O)O[C@H]1[C@@H]2OC(=O)C(CSc3ccccc3)[C@@H]2C[C@H]2O[C@]2(C)CC/C=C(\C)CCC[C@@H]1C` (stereo partly specified), the GI50 is 3.51 µM in the experiment with NCI-H23 lung; 2.98 µM in the experiment on SNB-75 CNS; 1.98 µM in the experiment with BT-549 breast; 2.34 µM with DU-145 prostate; 0.192 µM in the experiment on RPMI-8226 leukemia; 9.29 µM in the experiment with HOP-62 NSCLC. For the same compound, the values for the GI50 with SR leukemia and in the experiment with HCC-2998 colon were 1.69 µM and 4.7 µM, respectively. In addition, the TGI with NCI-H23 lung stood at 22.2 µM; with SNB-75 CNS, 11.6 µM; with BT-549 breast it was 8.84 µM; in the experiment with DU-145 prostate, 5.6 µM; in the experiment with RPMI-8226 leukemia, 10.4 µM; in the experiment with HOP-62 NSCLC, 32.5 µM. Further, the TGI with SR leukemia was above 20.1 µM; with HCC-2998 colon, 16.3 µM.
Consider `CC1(N)CCN(c2cnc(-c3cccc(Cl)c3Cl)c(N)n2)CC1`, for which the GI50 in the experiment with NCI-H23 lung was 5.99 µM; in the experiment with SNB-75 CNS, 7.24 µM; in the experiment with BT-549 breast, 10.8 µM; with DU-145 prostate, 56.5 µM; in the experiment with RPMI-8226 leukemia it was 13.8 µM; in the experiment on HOP-62 NSCLC, 4.28 µM. Besides, the figures for the GI50 in the experiment with SR leukemia and in the experiment on HCC-2998 colon were 7.6 µM and 22 µM, respectively. In addition, the TGI is above 100 µM with NCI-H23 lung; 27 µM in the experiment on SNB-75 CNS; 26.2 µM with BT-549 breast; above 100 µM in the experiment with DU-145 prostate; 40.1 µM with RPMI-8226 leukemia; 61.5 µM in the experiment with HOP-62 NSCLC. Further, the concentration for total growth inhibition (TGI) stood at 80 µM with SR leukemia and 77.6 µM in the experiment with HCC-2998 colon.
On to `CCCCCCCCCNC(=O)/C=C/c1ccc(O)c(O)c1`, for which the GI50 is 17.7 µM in the experiment with NCI-H23 lung; 15.4 µM in the experiment with SNB-75 CNS; 32.4 µM in the experiment with BT-549 breast; 17 µM in the experiment on DU-145 prostate; 0.61 µM with RPMI-8226 leukemia; 12.2 µM in the experiment on HOP-62 NSCLC. The values for the GI50 in the experiment with SR leukemia and with HCC-2998 colon were 2.76 µM and 16 µM, respectively. Moreover, the TGI with NCI-H23 lung was 39.2 µM; with SNB-75 CNS, 85.2 µM; in the experiment on BT-549 breast, above 100 µM; in the experiment with DU-145 prostate, 82.1 µM; with RPMI-8226 leukemia, 19.4 µM; in the experiment with HOP-62 NSCLC it was 25.1 µM. Besides, the values for the total growth inhibition concentration (TGI) in the experiment with SR leukemia and with HCC-2998 colon were 21 µM and 31.4 µM, respectively.
Take `O=[N+]([O-])c1cc(C(F)(F)F)ccc1Sc1ccc(C(F)(F)F)cc1[N+](=O)[O-]`: the GI50 was 4.62 µM in the experiment on NCI-H23 lung; above 100 µM with SNB-75 CNS; 7.52 µM in the experiment on BT-549 breast; 10.6 µM in the experiment with DU-145 prostate; 6.69 µM with RPMI-8226 leukemia; above 100 µM in the experiment on HOP-62 NSCLC. Besides, the results for the GI50 in the experiment on SR leukemia and with HCC-2998 colon were 3.65 µM and 19.7 µM, respectively. Also, the TGI with NCI-H23 lung, in the experiment with SNB-75 CNS, in the experiment on BT-549 breast, with DU-145 prostate, with RPMI-8226 leukemia and with HOP-62 NSCLC was above 100 µM in each case. Besides, the TGI in the experiment with SR leukemia and in the experiment with HCC-2998 colon was above 100 µM each time.
`CC(CN(C)C)Oc1ccccc1NC1=C(Cl)C(=O)C(Nc2ccccc2OC(C)CN(C)C)=C(Cl)C1=O` (stereo unspecified): the GI50 with NCI-H23 lung is 0.273 µM; with SNB-75 CNS it was 1.44 µM; in the experiment with BT-549 breast it was 1.62 µM; in the experiment on DU-145 prostate, 0.255 µM; in the experiment with RPMI-8226 leukemia, 0.372 µM; in the experiment on HOP-62 NSCLC, 1.67 µM. The GI50 was 0.265 µM in the experiment on SR leukemia and 1.29 µM in the experiment on HCC-2998 colon. Also, the TGI with NCI-H23 lung is 0.915 µM; with SNB-75 CNS it was 3.01 µM; in the experiment with BT-549 breast, 2.98 µM; in the experiment with DU-145 prostate it was 0.686 µM; in the experiment on RPMI-8226 leukemia, 1.95 µM; in the experiment with HOP-62 NSCLC, 3.07 µM. For the same compound, the values for the TGI in the experiment on SR leukemia and with HCC-2998 colon were 1.17 µM and 2.91 µM, respectively.
On to `O=C(Nc1cccc(-c2ccc(Cl)c(C(F)(F)F)c2)c1)C1CCN(Cc2cccc3cccnc23)CC1`, for which the GI50 was 1.64 µM in the experiment on NCI-H23 lung; 1.39 µM with SNB-75 CNS; 1.65 µM in the experiment with BT-549 breast; 1.79 µM in the experiment on DU-145 prostate; 2.07 µM in the experiment on RPMI-8226 leukemia; 1.85 µM with HOP-62 NSCLC. Moreover, the values for the GI50 in the experiment with SR leukemia and in the experiment with HCC-2998 colon were 1.52 µM and 1.43 µM, respectively. Further, the TGI was determined as 3.19 µM in the experiment with NCI-H23 lung; 2.71 µM in the experiment on SNB-75 CNS; 3.18 µM with BT-549 breast; 3.21 µM in the experiment on DU-145 prostate; 5.4 µM with RPMI-8226 leukemia; 3.74 µM with HOP-62 NSCLC. Also, the TGI was determined as 4.49 µM in the experiment with SR leukemia and 2.85 µM with HCC-2998 colon.
Turning to `O=C(N/N=C/c1ccc(O)cc1O)c1cccc(Nc2ccnc(C(F)(F)F)c2)c1`, the GI50 in the experiment with NCI-H23 lung is 3.8 µM; in the experiment with SNB-75 CNS, 11.3 µM; with BT-549 breast, 1.45 µM; in the experiment on DU-145 prostate, 1.93 µM; with RPMI-8226 leukemia, 3.55 µM; in the experiment on HOP-62 NSCLC it was 0.709 µM. Further, the figures for the GI50 in the experiment on SR leukemia and in the experiment on HCC-2998 colon were 0.29 µM and 0.778 µM, respectively. For the same compound, the TGI in the experiment on NCI-H23 lung was found to be 27.4 µM; in the experiment with SNB-75 CNS, 52.5 µM; in the experiment with BT-549 breast it was 50.8 µM; with DU-145 prostate, 20.9 µM; in the experiment with RPMI-8226 leukemia it was 14.9 µM; in the experiment with HOP-62 NSCLC, 24.7 µM. Further, the total growth inhibition concentration (TGI) with SR leukemia amounted to 6.34 µM; in the experiment with HCC-2998 colon, 18.1 µM.
As to `Cc1cc2c(C(N)=O)c(N)n(-c3c(C)ccc(O)c3C)c2nc1C`, the GI50 with NCI-H23 lung is 1.25 µM; in the experiment on SNB-75 CNS, 1.05 µM; in the experiment on BT-549 breast, 3.06 µM; in the experiment with DU-145 prostate, 4.16 µM; in the experiment with RPMI-8226 leukemia, 3.48 µM; in the experiment on HOP-62 NSCLC, 13 µM. Further, the GI50 is 2.47 µM in the experiment on SR leukemia and 3.21 µM in the experiment on HCC-2998 colon. Also, the TGI is 4.16 µM in the experiment on NCI-H23 lung; 8.3 µM in the experiment on SNB-75 CNS; 16.7 µM in the experiment on BT-549 breast; 19.7 µM in the experiment with DU-145 prostate; above 100 µM with RPMI-8226 leukemia; above 100 µM with HOP-62 NSCLC. In addition, the figures for the TGI in the experiment with SR leukemia and in the experiment with HCC-2998 colon were above 100 µM and 11.7 µM, respectively.
Take `COc1cc(C2=N/C(=C/c3cccs3)C(=O)O2)cc(OC)c1OC`: the TGI in the experiment with NCI-H23 lung, in the experiment with SNB-75 CNS, in the experiment with BT-549 breast, in the experiment on DU-145 prostate, in the experiment on RPMI-8226 leukemia and with HOP-62 NSCLC was above 100 µM throughout. Besides, the TGI in the experiment on SR leukemia and with HCC-2998 colon was above 100 µM each time.

What is called GI50 is the concentration that inhibits growth by half. Broadly, the TGI is the concentration at which net growth stops.

The values are drawn from PubChem BioAssay (NCI).
